This assay concerns the target T1, human LPA1 (Homo sapiens, UniProt Q92633).
T1 construct: the full-length cDNA for human LPA1 was obtained by PCR of the reverse transcription reaction; expressed in transfected cells
The assay can be described thus: LPA1 calcium flux assay. It is filed as cell-based. The settings on record: CHO cells expressing human LPA1, stimulated with 10 nM LPA; read-out: HLPA1 Ca Flux IC50. An outline of the steps: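 Antagonism measured as block of 10 nM LPA-evoked calcium rise in stable human LPA1-CHO cells. After overnight serum-free culture and 1 h dye loading at 37 °C (buffer with 0.3% fatty-acid-free albumin), compound was added for 30 min at room temperature. Titration curves gave IC50.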
In general terms: Calcium flux is commonly read through the fluorescence of an indicator in the cells.
T1 sequence (Q92633 whole entry): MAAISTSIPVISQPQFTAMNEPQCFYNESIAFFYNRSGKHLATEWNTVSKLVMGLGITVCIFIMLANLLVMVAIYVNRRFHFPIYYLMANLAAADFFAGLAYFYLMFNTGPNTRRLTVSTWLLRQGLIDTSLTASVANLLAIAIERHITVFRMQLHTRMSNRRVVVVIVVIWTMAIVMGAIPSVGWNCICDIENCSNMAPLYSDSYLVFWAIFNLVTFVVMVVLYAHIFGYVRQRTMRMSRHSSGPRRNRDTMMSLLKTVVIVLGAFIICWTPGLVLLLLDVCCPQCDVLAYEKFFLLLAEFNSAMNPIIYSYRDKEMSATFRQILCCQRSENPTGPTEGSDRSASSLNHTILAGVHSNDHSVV
The IC50 is the midpoint of a concentration-inhibition curve. As to `Cc1noc(-c2ccc(-c3ccc(C4(C(=O)O)CC4)cc3)cc2)c1COC(C)c1ccccc1` (stereo not drawn) [Compound 1-47, 1-{4′-[3-Methyl-4-(1-phenyl-ethoxymethyl)-isoxazol-5-yl]-biphenyl-4-yl}-cyclopropanecarboxylic acid], the IC50 lay in the range of 1000 to 50000 nM. To `Cc1noc(-c2ccc(-c3ccc(C4(CC(=O)O)CC4)cc3)cc2)c1C(O)CCCc1ccccc1` (single isomer, unassigned) [Compound 1-176, (1-{4′-[4-(1-Hydroxy-4-phenyl-butyl)-3-methyl-isoxazol-5-yl]-biphenyl-4-yl}-cyclopropyl)-acetic acid] belongs < 300 nM; to `CC(=O)c1cccc(Nc2c(C)noc2-c2ccc(-c3ccc(C4(C(=O)O)CC4)cc3)cc2)n1` [Compound 1-311, 1-{4′-[4-(6-Acetyl-pyridin-2-ylamino)-3-methyl-isoxazol-5-yl]-biphenyl-4-yl}-cyclopropanecarboxylic acid], < 300 nM; to `Cc1noc(-c2ccc(-c3ccc(C4(C(=O)O)CC4)cc3)cc2)c1NC(C)C(O)Cc1ccccc1` (single isomer, unassigned) [Compound 1-282, 1-{4′-[4-(2-Hydroxy-1-methyl-3-phenyl-propylamino)-3-methyl-isoxazol-5-yl]-biphenyl-4-yl}-cyclopropanecarboxylic acid], < 300 nM. To `Cc1noc(-c2ccc(-c3ccc(C(C)C(=O)O)cc3)cc2)c1CSCCc1ccccc1` (stereo not drawn) [Compound 1-123, 2-[4′-(3-Methyl-4-phenethylsulfanylmethyl-isoxazol-5-yl)-biphenyl-4-yl]-propionic acid] belongs < 300 nM; to `Cc1noc(-c2ccc(-c3ccc([C@H]4C[C@H]4C(=O)O)cc3)cc2)c1CSCCc1ccccc1` (single isomer, unassigned) [Compound 1-149, (cis)-2-[4′-(3-Methyl-4-phenethylsulfanylmethyl-isoxazol-5-yl)-biphenyl-4-yl]-cyclopropanecarboxylic acid], < 300 nM.

As for `Cc1noc(-c2ccc(-c3ccc(C4(C(=O)O)CC4)cc3)cc2)c1NC(=O)N(C)C(C)C` [Compound 1-8, 1-{4′-[4-(3-Isopropyl-3-methyl-ureido)-3-methyl-isoxazol-5-yl]-biphenyl-4-yl}-cyclopropanecarboxylic acid], the IC50 lay in the range of 1000 to 50000 nM.

In the case of `Cc1noc(-c2ccc(-c3ccc(C4(C(=O)O)CC4)cc3)cc2)c1C(O)C(=O)N(C)Cc1ccccc1` (stereo not drawn) [Compound 1-258, 1-(4′-{4-[(Benzyl-methyl-carbamoyl)-hydroxy-methyl]-3-methyl-isoxazol-5-yl}-biphenyl-4-yl)-cyclopropanecarboxylic acid], the IC50 was < 300 nM.

As for `Cc1noc(-c2ccc(-c3ccc(C4(C(=O)O)CC4)cc3)cc2)c1NC(=O)N[C@H](C)c1ccccc1` [Compound 1-11, 1-(4′-{3-Methyl-4-[3-((R)-1-phenyl-ethyl)-ureido]-isoxazol-5-yl}-biphenyl-4-yl)-cyclopropanecarboxylic acid], the IC50 was < 300 nM. Consider `Cc1noc(-c2ccc(-c3ccccc3CCC(=O)O)cc2)c1C(O)CCCc1ccccc1` (stereo not drawn) [Compound 1-201, 3-{4′-[4-(1-Hydroxy-4-phenyl-butyl)-3-methyl-isoxazol-5-yl]-biphenyl-2-yl}-propionic acid], for which the IC50 is 1000 to 50000 nM. To `COc1ccc(CC(C)Nc2c(C)noc2-c2ccc(-c3ccccc3CC(=O)O)cc2)cc1` (stereo not drawn) [Compound 1-238, (4′-{4-[2-(4-Methoxy-phenyl)-1-methyl-ethylamino]-3-methyl-isoxazol-5-yl}-biphenyl-2-yl)-acetic acid] belongs 1000 to 50000 nM. The value for `Cc1noc(-c2ccc(-c3ccc(C(Cc4ccccc4)C(=O)O)cc3)cc2)c1C(O)CCCc1ccccc1` (stereo not drawn) [Compound 1-188, 2-{4′-[4-(1-Hydroxy-4-phenyl-butyl)-3-methyl-isoxazol-5-yl]-biphenyl-4-yl}-3-phenyl-propionic acid] was < 300 nM; that for `Cc1noc(-c2ccc(-c3ccc(C#CC(=O)O)cc3)cc2)c1N[C@@H](C)CCc1cccc(C(F)(F)F)c1` [Compound 1-307, (4′-{3-Methyl-4-[(S)-1-methyl-3-(3-trifluoromethyl-phenyl)-propylamino]-isoxazol-5-yl}-biphenyl-4-yl)-propynoic acid] was 300 to 1000 nM. To `Cc1noc(-c2ccc(-c3ccc([C@H]4C[C@H]4C(=O)O)cc3)cc2)c1CC(F)(F)CCc1ccccc1` (relative stereo) [Compound 1-135, (cis)-2-{4′-[4-(2,2-Difluoro-4-phenyl-butyl)-3-methyl-isoxazol-5-yl]-biphenyl-4-yl}-cyclopropanecarboxylic acid] belongs < 300 nM. On to `Cc1noc(-c2ccc(-c3ccc(CC(=O)O)cc3)cc2)c1CSCCc1ccccc1` [Compound 1-108, [4′-(3-Methyl-4-phenethylsulfanylmethyl-isoxazol-5-yl)-biphenyl-4-yl]-acetic acid], for which the IC50 was < 300 nM.

With `Cc1noc(-c2ccc(-c3ccc(C4(C(=O)O)CC4)cc3)cc2)c1CO` [Compound 1-152, 1-[4′-(4-Hydroxymethyl-3-methyl-isoxazol-5-yl)-biphenyl-4-yl]-cyclopropanecarboxylic acid], the IC50 lay within 1000 to 50000 nM. The value for `Cc1noc(-c2ccc(-c3ccc(C4(CC(=O)O)CC4)cc3)cc2)c1NC(CCc1ccccc1)c1ccccc1` (stereo not drawn) [Compound 1-213, (1-{4′-[4-(1,3-Diphenyl-propylamino)-3-methyl-isoxazol-5-yl]-biphenyl-4-yl}-cyclopropyl)-acetic acid] was 300 to 1000 nM; that for `Cc1noc(-c2ccc(-c3ccc(CC4(C(=O)O)CC4)cc3)cc2)c1C(O)CCCc1ccccc1` (stereo not drawn) [Compound 1-250, 1-{4′-[4-(1-Hydroxy-4-phenyl-butyl)-3-methyl-isoxazol-5-yl]-biphenyl-4-ylmethyl}-cyclopropanecarboxylic acid] was < 300 nM; that for `Cc1noc(-c2ccc(-c3ccc(C4(C(=O)O)CC4)cc3)cc2)c1NC(=O)NCc1ccccc1F` [Compound 1-12, 1-(4′-{4-[3-(2-Fluoro-benzyl)-ureido]-3-methyl-isoxazol-5-yl}-biphenyl-4-yl)-cyclopropanecarboxylic acid] was < 300 nM. To `Cc1noc(-c2ccc(-c3ccc(C4(CC(=O)O)CC4)cc3)cc2)c1NC(C)CC(C)(C)c1ccccc1` (stereo not drawn) [Compound 1-287, (1-{4′-[4-(1,3-Dimethyl-3-phenyl-butylamino)-3-methyl-isoxazol-5-yl]-biphenyl-4-yl}-cyclopropyl)-acetic acid] belongs < 300 nM. To `Cc1noc(-c2ccc(-c3ccc(C4(C(=O)O)CC4)cc3)cc2)c1NC(=O)NS(=O)(=O)c1ccccc1` [Compound 1-18, 1-{4′-[4-(3-Benzenesulfonyl-ureido)-3-methyl-isoxazol-5-yl]-biphenyl-4-yl}-cyclopropanecarboxylic acid] belongs 1000 to 50000 nM; to `Cc1noc(-c2ccc(-c3ccc(C4(C(=O)O)CC4)cc3)cc2)c1CCOCc1cccnc1` [Compound 1-76, 1-(4′-{3-Methyl-4-[2-(pyridin-3-ylmethoxy)-ethyl]-isoxazol-5-yl}-biphenyl-4-yl)-cyclopropanecarboxylic acid], 1000 to 50000 nM; to `Cc1noc(-c2ccc(-c3ccc(C4(C(=O)O)CC4)cc3)cc2)c1CN(CC(C)c1ccccc1)C(=O)C1CC1` (stereo not drawn) [Compound 1-73, 1-[4′-(4-{[Cyclopropanecarbonyl-(2-phenyl-propyl)-amino]-methyl}-3-methyl-isoxazol-5-yl)-biphenyl-4-yl]-cyclopropanecarboxylic acid], 1000 to 50000 nM. For the compound `Cc1noc(-c2ccc(-c3ccc(C4(CC(=O)O)CC4)cc3)cc2)c1CC(F)(F)CCc1ccccc1` [Compound 1-175, (1-{4′-[4-(2,2-Difluoro-4-phenyl-butyl)-3-methyl-isoxazol-5-yl]-biphenyl-4-yl}-cyclopropyl)-acetic acid], the half-maximal inhibitory concentration (IC50) was < 300 nM. To `Cc1noc(-c2ccc(-c3ccc(C4(C(=O)O)CC4)cc3)cc2)c1CNC(=O)NCc1ccccc1` [Compound 1-59, 1-{4′-[4-(3-Benzyl-ureidomethyl)-3-methyl-isoxazol-5-yl]-biphenyl-4-yl}-cyclopropanecarboxylic acid] belongs 1000 to 50000 nM. To `Cc1noc(-c2ccc(-c3ccc(C4(C(=O)O)CC4)cc3)cc2)c1NC(C)CCc1ccccc1` (single isomer, unassigned) [Compound 1-221, 1-{4′-[3-Methyl-4-(1-methyl-3-phenyl-propylamino)-isoxazol-5-yl]-biphenyl-4-yl}-cyclopropanecarboxylic acid] belongs < 300 nM.

`Cc1noc(-c2ccc(-c3ccc(C4(C(=O)O)CC4)cc3)cc2)c1Nc1cccc(OC(C)C)n1` [Compound 1-297, 1-{4′-[4-(6-Isopropoxy-pyridin-2-ylamino)-3-methyl-isoxazol-5-yl]-biphenyl-4-yl}-cyclopropanecarboxylic acid]: the IC50 was < 300 nM. To `Cc1noc(-c2ccc(-c3ccc(C4(C(=O)O)CC4)cc3)cc2)c1C(O)C/C=C/c1ccccc1` (stereo not drawn) [Compound 1-115, 1-{4′-[4-((E)-1-Hydroxy-4-phenyl-but-3-enyl)-3-methyl-isoxazol-5-yl]-biphenyl-4-yl}-cyclopropanecarboxylic acid] belongs < 300 nM; to `Cc1noc(-c2ccc(-c3ccc(C4(C(=O)O)CC4)cc3)cc2)c1NC(=O)NC(C)(C)C` [Compound 1-7, 1-{4′-[4-(3-tert-Butyl-ureido)-3-methyl-isoxazol-5-yl]-biphenyl-4-yl}-cyclopropanecarboxylic acid], < 300 nM; to `Cc1noc(-c2ccc(-c3ccc(C4(C(=O)O)CC4)cc3)cc2)c1C=CCCc1ccccc1` [Compound 1-31, 1-{4′-[3-Methyl-4-(4-phenyl-but-1-enyl)-isoxazol-5-yl]-biphenyl-4-yl}-cyclopropanecarboxylic acid], < 300 nM.

The record behind these values is patent US9624182B2, “Compounds as lysophosphatidic acid receptor antagonists” (Amira Pharmaceuticals, Inc., priority 2009, dated 2017).
